# Calls of active or inactive are those of the source. No rule for the calls is given here.
# Tested on: rodent carcinogenicity bioassays, tumor incidence
# Experiment: CCRIS carcinogenicity studies
# Conditions: Dose: 0
# Outline: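 Archive of carcinogenicity, mutagenicity, tumor promotion and tumor inhibition results drawn from journals, NCI reports and other sources, expert-reviewed; covers 1985-2011 and is no longer updated.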
structure (smiles),measurement,setting,value
Oc1ccccc1-c1ccccc1,carcinogen call,"Species: GUINEA PIG, Strain/Sex: HARTLEY/MALE, Route: ORAL, 2% IN DIET (STUDY DURATION: 48 WK)",inactive; negative
same,carcinogen call,"Species: HAMSTER, Strain/Sex: SYRIAN/MALE, Route: ORAL, 2% IN DIET (STUDY DURATION: 48 WK)",inactive; negative
same,carcinogen call,"Species: MOUSE, Strain/Sex: B6C3F1/FEMALE, Route: ORAL, 0.5, 1, 2% IN DIET FOR 96 WK (STUDY DURATION: 104 WK), 0.5, 1, 2% IN DIET FOR 96 WK (STUDY DURATION: 104 WK)",inactive; negative
same,carcinogen call,"Species: MOUSE, Strain/Sex: B6C3F1/FEMALE, Route: ORAL, 0.5, 1, 2% IN THE DIET FOR 96 WK (STUDY DURATION: 104 WK), 0.5, 1, 2% IN THE DIET FOR 96 WK (STUDY DURATION: 104 WK)",inactive; negative
same,carcinogen call,"Species: MOUSE, Strain/Sex: B6C3F1/MALE, Route: ORAL, 0.5, 1, 2% IN DIET FOR 96 WK (STUDY DURATION: 104 WK), 0.5, 1, 2% IN DIET FOR 96 WK (STUDY DURATION: 104 WK)",inactive; negative
same,carcinogen call,"Species: MOUSE, Strain/Sex: B6C3F1/MALE, Route: ORAL, 0.5, 1, 2% IN THE DIET FOR 96 WK (STUDY DURATION: 104 WK), 0.5, 1, 2% IN THE DIET FOR 96 WK (STUDY DURATION: 104 WK)",inactive; negative
same,carcinogen call,"Species: MOUSE, Strain/Sex: B6C3F1/MALE, Route: ORAL, 2% IN DIET (STUDY DURATION: 48 WK)",inactive; negative
same,carcinogen call,"Species: MOUSE, Strain/Sex: CD-1/FEMALE, Route: DERMAL, 55.5 MG/ANIMAL IN 0.1 ML ACETONE 3 D/WK FOR 102 WK",inactive; negative
same,carcinogen call,"Species: MOUSE, Strain/Sex: CD-1/MALE, Route: DERMAL, 55.5 MG/ANIMAL IN 0.1 ML ACETONE 3 D/WK FOR 102 WK",inactive; negative
same,carcinogen call,"Species: RAT, Strain/Sex: F344/MALE, Route: ORAL, 0.125, 0.25, 0.5, 1.0, 2.0, 4.0% IN DIET FOR 91 WK, 0.125, 0.25, 0.5, 1.0, 2.0, 4.0% IN DIET FOR 91 WK, Tumor Site: Type of Lesion: KIDNEY: TRANSITIONAL CELL CARCINOMA, URINARY BLADDER: TRANSITIONAL CELL CARCINOMA",active; positive
same,carcinogen call,"Species: RAT, Strain/Sex: F344/MALE, Route: ORAL, 0.625, 1.25, 2.5% IN PELLET DIET FOR STUDY DURATION (STUDY DURATION: 91 WK), 0.625, 1.25, 2.5% IN PELLET DIET FOR STUDY DURATION (STUDY DURATION: 91 WK), Tumor Site: Type of Lesion: BLADDER: TRANSITIONAL CELL PAPILLOMA, TRANSITIONAL CELL CARCINOMA",active; positive
same,carcinogen call,"Species: RAT, Strain/Sex: F344/MALE, Route: ORAL, 2% IN DIET (STUDY DURATION: 48 WK)",inactive; negative
same,carcinogen call,"Species: RAT, Strain/Sex: F344/MALE, Route: ORAL, 2% IN DIET FOR 104 WK (STUDY DURATION: 104 WK), Tumor Site: Type of Lesion: BLADDER: CARCINOMA",active; positive
O=CC(=O)C[C@H](O)[C@H](O)CO,carcinogen call,"Species: MOUSE, Strain/Sex: CD-1/FEMALE, Route: DERMAL, 20 UMOL/0.1 ML DMSO 2/WK FOR 5 WK FOLLOWED 1 WK LATER BY 0.1 ML ACETONE 2/WK FOR 47 WK (STUDY DURATION: 52 WK)",inactive; negative
Nc1c(Cl)c(F)nc(OCC(=O)O)c1Cl,carcinogen call,"Species: Mouse, Strain/Sex: CD-1/Female (60/Group), Route: Oral, 100, 500, 1000 mg/kg/day of 98.9% fluroxypyr in diet for 18 mo, study duration 18 mo, 100, 500, 1000 mg/kg/day of 98.9% fluroxypyr in diet for 18 mo, study duration 18 mo",inactive; negative
same,carcinogen call,"Species: Mouse, Strain/Sex: CD-1/Male (60/Group), Route: Oral, 100, 500, 1000 mg/kg/day of 98.9% fluroxypyr in diet for 18 mo, study duration 18 mo, 100, 500, 1000 mg/kg/day of 98.9% fluroxypyr in diet for 18 mo, study duration 18 mo",inactive; negative
same,carcinogen call,"Species: Rat, Strain/Sex: Fischer 344/Female (50/Group), Route: Oral, 100, 500, 1000 mg/kg/day of 99.0% fluroxypyr in diet for 2 yr, study duration 2 yr, 100, 500, 1000 mg/kg/day of 99.0% fluroxypyr in diet for 2 yr, study duration 2 yr",inactive; negative
same,carcinogen call,"Species: Rat, Strain/Sex: Fischer 344/Male (50/Group), Route: Oral, 100, 500, 1000 mg/kg/day of 99.0% fluroxypyr in diet for 2 yr, study duration 2 yr, 100, 500, 1000 mg/kg/day of 99.0% fluroxypyr in diet for 2 yr, study duration 2 yr",inactive; negative
CN(C)c1ccc(Cc2ccc(N(C)C)cc2)cc1,carcinogen call,"Species: MOUSE, Strain/Sex: B6C3F1/FEMALE, Route: ORAL, 1250, 2500 PPM IN DIET FOR 78 WK (STUDY DURATION: 91 WK), 1250, 2500 PPM IN DIET FOR 78 WK (STUDY DURATION: 91 WK), Tumor Site: Type of Lesion: LIVER: HEPATOCELLULAR ADENOMA OR CARCINOMA",active; positive
same,carcinogen call,"Species: MOUSE, Strain/Sex: B6C3F1/MALE, Route: ORAL, 1250, 2500 PPM IN DIET FOR 78 WK (STUDY DURATION: 91 WK), 1250, 2500 PPM IN DIET FOR 78 WK (STUDY DURATION: 91 WK), Tumor Site: Type of Lesion: LIVER: HEPATOCELLULAR ADENOMA OR CARCINOMA",equivocal
same,carcinogen call,"Species: RAT, Strain/Sex: F344/FEMALE, Route: ORAL, 0.0375, 0.075% IN DIET FOR 59 WK (STUDY DURATION: 2 YR), 0.0375, 0.075% IN DIET FOR 59 WK (STUDY DURATION: 2 YR), Tumor Site: Type of Lesion: THYROID GLAND: FOLLICULAR CARCINOMA",active; positive
same,carcinogen call,"Species: RAT, Strain/Sex: F344/FEMALE, Route: ORAL, 375, 750 PPM IN DIET FOR 59 WK (STUDY DURATION: 104 WK), 375, 750 PPM IN DIET FOR 59 WK (STUDY DURATION: 104 WK), Tumor Site: Type of Lesion: THYROID GLAND: FOLLICULAR CELL ADENOMA OR CARCINOMA",active; positive
same,carcinogen call,"Species: RAT, Strain/Sex: F344/MALE, Route: ORAL, 0.0375, 0.075% IN DIET FOR 59 WK (STUDY DURATION: 2 YR), 0.0375, 0.075% IN DIET FOR 59 WK (STUDY DURATION: 2 YR), Tumor Site: Type of Lesion: THYROID GLAND: FOLLICULAR CARCINOMA",active; positive
same,carcinogen call,"Species: RAT, Strain/Sex: F344/MALE, Route: ORAL, 375, 750 PPM IN DIET FOR 59 WK (STUDY DURATION: 104 WK), 375, 750 PPM IN DIET FOR 59 WK (STUDY DURATION: 104 WK), Tumor Site: Type of Lesion: THYROID GLAND: FOLLICULAR CELL ADENOMA OR CARCINOMA",active; positive
O=S(=O)(O)c1cc(S(=O)(=O)O)c2c(N=Nc3ccc(S(=O)(=O)O)c4ccccc34)c(O)ccc2c1,carcinogen call,"Species: RAT, Strain/Sex: WISTAR/FEMALE, Route: ORAL, 50, 500, 1250 MG/KG/D IN DIET TO PUPS OF PARENTS GIVEN THE SAME DIETARY DOSE LEVELS FOR 60 D PRIOR TO MATING (STUDY D, 50, 500, 1250 MG/KG/D IN DIET TO PUPS OF PARENTS GIVEN THE SAME DIETARY DOSE LEVELS FOR 60 D PRIOR TO MATING (STUDY D",inactive; negative
same,carcinogen call,"Species: RAT, Strain/Sex: WISTAR/MALE, Route: ORAL, 50, 500, 1250 MG/KG/D IN DIET TO PUPS OF PARENTS GIVEN THE SAME DIETARY DOSE LEVELS FOR 60 D PRIOR TO MATING (STUDY D, 50, 500, 1250 MG/KG/D IN DIET TO PUPS OF PARENTS GIVEN THE SAME DIETARY DOSE LEVELS FOR 60 D PRIOR TO MATING (STUDY D",inactive; negative
C1COCCN1,carcinogen call,"Species: RAT, Strain/Sex: SPRAGUE-DAWLEY/FEMALE, Route: INHALATION, 10, 50, 150 PPM 6 HR/D 5 D/WK FOR 104 WK (STUDY DURATION: 105 WK), 10, 50, 150 PPM 6 HR/D 5 D/WK FOR 104 WK (STUDY DURATION: 105 WK)",inactive; negative
same,carcinogen call,"Species: RAT, Strain/Sex: SPRAGUE-DAWLEY/MALE, Route: INHALATION, 10, 50, 150 PPM 6 HR/D 5 D/WK FOR 104 WK (STUDY DURATION: 105 WK), 10, 50, 150 PPM 6 HR/D 5 D/WK FOR 104 WK (STUDY DURATION: 105 WK)",inactive; negative

# Reference: PubChem BioAssay AID1259411 (Chemical Carcinogenesis Research Information System (CCRIS), 2018)
